Where two headings read alike, the source gives them in different places.

Assay type in all cases: biochemical
For assay [1], the target named is ALDH2 (Homo sapiens (Human), UniProt P05091). Kind of assay: ALDH assay (diaphorase/resazurin), ALDH2 inhibition. The text has this: (§1) ALDH catalyzes the oxidation of acetaldehyde to acetic acid while reducing NAD+ to NADH. The formation of NADH is fluorescently detected using diaphorase/resazurin system. Diaphorase utilizes NADH formed from ALDH reaction to produce the fluorescent molecule resorufin from resazurin. See Davis, M. I.; Shen, M.; Simeonov, A.; Hall, M. D., Diaphorase Coupling Protocols for Red-Shifting Dehydrogenase Assays.
Sequence of ALDH2 (P05091 18-517): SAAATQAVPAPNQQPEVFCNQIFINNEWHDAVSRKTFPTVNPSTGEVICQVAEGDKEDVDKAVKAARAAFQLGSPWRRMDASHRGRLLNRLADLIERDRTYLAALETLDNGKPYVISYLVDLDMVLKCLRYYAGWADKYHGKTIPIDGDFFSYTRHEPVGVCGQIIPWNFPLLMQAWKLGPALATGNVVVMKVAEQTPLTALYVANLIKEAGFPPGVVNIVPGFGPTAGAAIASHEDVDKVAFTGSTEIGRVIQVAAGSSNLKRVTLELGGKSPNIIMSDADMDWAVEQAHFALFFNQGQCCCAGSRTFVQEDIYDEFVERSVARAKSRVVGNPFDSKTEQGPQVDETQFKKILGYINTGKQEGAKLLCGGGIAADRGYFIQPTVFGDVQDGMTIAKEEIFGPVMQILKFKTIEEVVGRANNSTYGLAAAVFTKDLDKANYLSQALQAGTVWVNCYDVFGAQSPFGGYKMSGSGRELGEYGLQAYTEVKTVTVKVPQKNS
(§2) The reagent ALDH1a1 is from R&D Systems (Minneapolis, MN). ALDH2 is from Prospect Bio (East Brunswick, NJ). Acetaldehyde is from Cayman Chemicals (Ann Arbor, MI). NAD^+, and Resazurin sodium salt are from Sigma (St. Louis, MO). Diaphorase is from Reaction Biology (Malvern PA). Zaba micro spin columns are from ThermoFisher scientific (Waltham, MA). […] Desalted samples from each enzyme were pooled together and placed in ice until use. Reaction buffer (50 mM sodium pyrophosphate buffer at pH 8.8, 0.01% Brij35) degassed using vacuum for 10 mins until no visible air bubbles were seen.
(§3) 5 μl of reaction buffer was delivered to ‘no enzyme’ background control wells. Test compounds were prepared in 100% DMSO by serial dilution in 100× of assay concentration. After adding the test compounds, reaction plate was centrifuged briefly in 1200 rpm, then incubated for 20 min at room temperature, to pre-incubate enzyme and compounds. […] Reaction plate was briefly centrifuged and sealed with a plastic film to limit evaporation. After incubation at room temperature for 60 min, 10 μl of detection reagent (15 μg/ml diaphorase, 30 μM resazurin prepared in the degassed reaction buffer) was added. Reaction plate was briefly centrifuged and incubated for 10 minutes at room temperature in the dark.

Assay [2] has as its target ALDH1a1 (Homo sapiens (Human), UniProt P00352). Put plainly: ALDH assay (diaphorase/resazurin), ALDH1a1 inhibition.
Source text: as §1, §2, §3

Assay [3] concerns the target human MAGL (hMAGL) (Homo sapiens (Human), UniProt Q99685). Put plainly: MAGL enzyme inhibition assay (4-nitrophenylacetate). The settings on record: for IC50: Table II, average of at least two experiments, read-out: IC50 (μM) ± SE (hMAGL); for decrease in inhibitory activity against MAGL: relative to disulfiram / unsubstituted analog. The protocol:
The plate was mixed for 30 s and incubated at room temperature for 30 min.

In assay [4] the target is human FAAH (hFAAH) (Homo sapiens (Human), UniProt O00519). Kind of assay: FAAH enzyme inhibition assay (Cayman kit, AMC-arachidonoyl amide). To be noted: for IC50: Table II, average of at least two experiments, read-out: IC50 (μM) ± SE (hFAAH). The protocol:
FAAH inhibition assay was performed using Fatty Acid Amide Hydrolase Inhibitor Screening Assay Kit (Item #10005196), Cayman (1180 E Ellsworth Rd Ann Arbor, MI, USA). […] Manufacturer's protocol was followed to perform the assay. The assay buffer (125 mM Tri-HCl with 1 mM EDTA, pH 9.0) was used to dilute the FAAH human recombinant enzyme. AMC-Arachidonoyl amide, at a concentration of 400 μM was then used as the FAAH substrate. Samples were mixed for 30 s and incubated at 37° C. for 30 min. The fluorescent by-product AMC (7-amino-4-methylcoumarin) released by the FAAH enzyme was detected and quantified at an excitation wavelength of 355 nm and emission wavelength of 460 nm.

[5] abbreviates: Table IB, mean of at least two independent experiments, read-out: IC50 (μM) ± SE (ALDH2).
Where [6] appears, read: Table IA, mean of at least two independent experiments, read-out: IC50 (μM) ± SE (ALDH1a1).
The mark [7] stands for this setting: Table III, read-out: Aldh1a1 (IC50, μM) ± SE.

Sequence of ALDH1a1 (P00352 whole entry): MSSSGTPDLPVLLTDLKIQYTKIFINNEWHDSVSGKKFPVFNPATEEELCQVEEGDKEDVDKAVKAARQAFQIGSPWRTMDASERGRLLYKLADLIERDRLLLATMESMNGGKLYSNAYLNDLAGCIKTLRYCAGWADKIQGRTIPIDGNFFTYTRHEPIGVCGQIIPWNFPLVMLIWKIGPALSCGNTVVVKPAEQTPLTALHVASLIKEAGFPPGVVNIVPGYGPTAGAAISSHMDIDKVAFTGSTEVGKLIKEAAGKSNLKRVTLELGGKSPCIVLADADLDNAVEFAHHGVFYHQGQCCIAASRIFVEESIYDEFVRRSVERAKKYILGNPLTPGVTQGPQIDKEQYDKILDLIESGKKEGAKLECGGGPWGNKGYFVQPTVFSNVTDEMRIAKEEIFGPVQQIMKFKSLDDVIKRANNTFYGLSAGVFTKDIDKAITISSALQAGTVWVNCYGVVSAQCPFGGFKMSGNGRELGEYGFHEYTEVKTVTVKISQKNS
Sequence of human MAGL (hMAGL) (Q99685 whole entry): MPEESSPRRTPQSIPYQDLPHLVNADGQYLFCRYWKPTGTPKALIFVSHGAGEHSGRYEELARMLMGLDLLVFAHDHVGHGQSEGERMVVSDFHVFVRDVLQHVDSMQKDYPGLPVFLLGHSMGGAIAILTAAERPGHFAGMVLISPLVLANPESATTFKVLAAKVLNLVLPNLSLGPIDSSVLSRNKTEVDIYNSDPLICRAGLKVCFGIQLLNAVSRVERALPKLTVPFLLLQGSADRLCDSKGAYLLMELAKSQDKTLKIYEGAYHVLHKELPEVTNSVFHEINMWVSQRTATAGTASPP
Sequence of human FAAH (hFAAH) (O00519 whole entry): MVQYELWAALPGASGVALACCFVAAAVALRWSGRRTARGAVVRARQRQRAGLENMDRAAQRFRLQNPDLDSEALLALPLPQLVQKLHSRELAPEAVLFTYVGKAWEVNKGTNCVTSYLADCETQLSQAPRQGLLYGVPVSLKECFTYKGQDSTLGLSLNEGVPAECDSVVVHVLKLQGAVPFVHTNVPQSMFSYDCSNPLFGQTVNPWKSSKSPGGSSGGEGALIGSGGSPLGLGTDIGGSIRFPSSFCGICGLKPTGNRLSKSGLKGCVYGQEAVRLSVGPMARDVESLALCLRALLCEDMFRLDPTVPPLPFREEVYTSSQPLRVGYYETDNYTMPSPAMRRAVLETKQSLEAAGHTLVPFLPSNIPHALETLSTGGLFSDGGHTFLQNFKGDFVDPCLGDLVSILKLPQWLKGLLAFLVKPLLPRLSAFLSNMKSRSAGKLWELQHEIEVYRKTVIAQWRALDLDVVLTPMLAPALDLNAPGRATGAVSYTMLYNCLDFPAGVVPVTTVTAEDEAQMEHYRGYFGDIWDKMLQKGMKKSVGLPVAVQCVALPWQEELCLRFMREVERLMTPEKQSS

On to `CN(C)C(=S)SSC(=S)N(C)C` [Compound I-2g, reference compound], for which the IC50 in assay [1] (setting [5]) amounted to 0.32 ± 0.04 µM; in assay [2] (setting [6]) it was 0.02 ± 0.01 µM.
For the compound `CCN(Cc1ccco1)C(=S)SSC(=S)N(CC)Cc1ccco1` [III-2p, bis(N-(2-furylmethyl)ethylthiocarbamoyl)disulphide], the IC50 in assay [1] (Table III, read-out: Aldh2 (IC50, μM) ± SE) came to 200 ± 129 µM; in assay [2] (setting [7]), 0.39 ± 0.27 µM.
For `CCN(CCO)C(=S)SSC(=S)N(CC)CCO` [Compound I-2f, bis(N-hydroxyethylethylthiocarbamoyl)disulfide], the IC50 stood at 0.72 ± 0.2 µM in assay [3], 25.7 ± 12.3 µM in assay [1] (setting [5]), 2.54 ± 1.15 µM in assay [2] (setting [6]) and 25.4 ± 3.26 µM in assay [4].
Take `O=C(Oc1ccc([N+](=O)[O-])cc1)N1CCN(Cc2cccc(Oc3ccccc3)c2)CC1` [JZL-195, reference compound]: the IC50 in assay [4] amounted to 0.04 ± 0.02 µM.
In the case of `NCCS` [Compound 3, Cysteamine, reference compound], the “ALDH2 inhibitory activity (in words)” value in assay [1] is “none of them showed any activity”. In addition, the “activity against ALDH1a1 (in words)” value in assay [2] is listed as “none of them showed any activity”.
Take `CCN(Cc1ccc(OC)cc1)C(=S)SSC(=S)N(CC)Cc1ccc(OC)cc1`: the “Aldh2 (IC50, μM) ± SE” value in assay [1] (Table III) was “No inhibition”. The IC50 in assay [2] (setting [7]) is 0.58 ± 0.41 µM.
`CCN(CC)C(=S)SSC(=S)N(CC)CC` [Disulfiram, reference compound]: the IC50 in assay [3] is 0.95 ± 0.26 µM; in assay [4] (listed as II-2a) it was 36.2 ± 11 µM.
With `CCN(Cc1ccc(C(=O)O)cc1)C(=S)SSC(=S)N(CC)Cc1ccc(C(=O)O)cc1` [Compound I-2d], the IC50 in assay [3] stood at 22.6 ± 16.8 µM; in assay [1] (setting [5]), 99.36 ± 0.64 µM; in assay [2] (setting [6]), 2.96 ± 1.52 µM. Moreover, the “decrease in inhibitory activity against MAGL” value in assay [3] was determined as 20 fold. For the same compound, the “decrease in ALDH1a1 inhibitory activity” value in assay [2] (relative to I-2a) is recorded as “tenfold decrease”. In assay [4], the “FAAH inhibitory activity (in words)” value is reported as “devoid of anti-FAAH activity”.
For the compound `CCN(CCC(=O)O)C(=S)SSC(=S)N(CC)CCC(=O)O` [Compound I-2e, bis(N-carboxylethylethylthiocarbamoyl)disulfide], the IC50 in assay [3] turned out to be 0.87 ± 0.21 µM; in assay [1] (setting [5]) it was 0.85 ± 0.55 µM; in assay [2] (setting [6]) it was 0.15 ± 0.14 µM; in assay [4], 12.8 ± 1.57 µM.
Consider `CCN(Cc1ccncc1)C(=S)SSC(=S)N(CC)Cc1ccncc1` [III-2o, bis(N-(4-pyridylmethyl)ethylthiocarbamoyl) disulphide], for which the “Aldh2 (IC50, μM) ± SE” value in assay [1] (Table III) is reported as “No inhibition”. Moreover, the IC50 in assay [2] (setting [7]) came to 5.76 ± 4.01 µM.
For the compound `CCOCCNC(=S)SSC(=S)NCCOCC` [Compound I-2m, reference compound], the IC50 in assay [2] (setting [6]) was 0.04 ± 0.03 µM.
For “bis(N-4-hydroxybenzylethylthlocarbamoyl)disulfide [Compound I-2c]”, the IC50 in assay [3] was 3.71 ± 1.28 µM; in assay [1] (setting [5]), 10.9 ± 0.61 µM; in assay [2] (setting [6]), 0.21 ± 0.04 µM; in assay [4], 38.2 ± 7.96 µM. In addition, the “catalytic activity of inhibited ALDH1a1 after addition of dithiothreitol” value in assay [2] (addition of dithiothreitol) was “completely restored”.
As to `CCN(Cc1ccc(C(F)(F)F)cc1)C(=S)SSC(=S)N(CC)Cc1ccc(C(F)(F)F)cc1` [III-1n, bis(N-4-trifluoromethylbenzylethylthiocarbamoyl)disulphide], the “Aldh2 (IC50, μM) ± SE” value in assay [1] (Table III) was “No inhibition”. In assay [2] (Table III), the “Aldh1a1 (IC50, μM) ± SE” value is listed as “No inhibititon”.
With `CCOC(=O)CCN(CC)C(=S)SSC(=S)N(CC)CCC(=O)OCC` [II-2g, bis(N-ethoxycarbonylethylethylthiocarbamoyl)disulphide], the IC50 in assay [3] was found to be 3.53 ± 1.32 µM; in assay [4], 10.1 ± 0.68 µM.
`NCCSSCCN` [Compound 4, Cystamine, reference compound]: the “ALDH2 inhibitory activity (in words)” value in assay [1] is “none of them showed any activity”. Further, the “activity against ALDH1a1 (in words)” value in assay [2] was “none of them showed any activity”. Besides, the IC50 in assay [2] (setting [6]) is over 100 µM.
Turning to `CCN(Cc1ccsc1)C(=S)SSC(=S)N(CC)Cc1ccsc1` [III-2r, bis(N-(3-thienylmethyl)ethylthiocarbamoyl)disulphide], the “Aldh2 (IC50, μM) ± SE” value in assay [1] (Table III) is reported as “No inhibition”. The IC50 in assay [2] (setting [7]) was determined as 0.17 ± 0.1 µM.
The corresponding values for `CCN(Cc1cccs1)C(=S)SSC(=S)N(CC)Cc1cccs1` [III-2q, bis(N-(2-thienylmethyl)ethylthiocarbamoyl)disulphide] are “No inhibition” and 0.39 ± 0.31 µM.
As to `CC(C)N(C(=S)SSC(=S)N(C(C)C)C(C)C)C(C)C` [Compound I-2h, reference compound], the IC50 was 1.89 ± 0.37 µM in assay [3], over 100 µM in assay [1] (setting [5]) and 2.85 ± 1.08 µM in assay [2] (setting [6]).
As to `CC(C)CN(CC(C)C)C(=S)SSC(=S)N(CC(C)C)CC(C)C` [Compound I-2j, reference compound], in assay [3], the IC50 was 13.4 ± 4.79 µM and the “decrease in inhibitory activity against MAGL” value was “up to 15 fold”. Also, the “hydrolytic activity of inhibited MAGL upon addition of dithiothreitol” value in assay [3] (dithiothreitol (10 mM)) is given as “restored”. Also, in assay [2], the “activity against ALDH1a1 (in words)” value was “complete loss of activity”. Also, in assay [2] (setting [6]), the IC50 was over 100 µM. Besides, in assay [4], the “FAAH inhibitory activity (in words)” value is “no inhibition”.
As to “bis(N-4-ethoxycarbonylbenzylethylthiocarbamoyl)disulphide [II-2l]”, in assay [3], the IC50 was determined as 5.03 ± 2.35 µM. Also, in assay [4], the “FAAH inhibitory activity (in words)” value is listed as “devoid of anti-FAAH activity”.
For “N-Acetyl-L-Cysteamine [Compound 5, reference compound]”, in assay [1], the “ALDH2 inhibitory activity (in words)” value is reported as “none of them showed any activity”. Also, the “activity against ALDH1a1 (in words)” value in assay [2] is reported as “none of them showed any activity”.
